Source: patent US20040086880A1, “Method of producing nucleic acid molecules with reduced secondary structure” (priority 1999, published 2004)

How the values were obtained:
Assay type in all cases: biochemical
Bst DNA polymerase = molecular target: T1, Bst DNA polymerase (Geobacillus stearothermophilus, UniProt P52026); assay: Synthesis of single-stranded 56-mer by primer extension and lambda exonuclease digestion; settings: substituted for dATP and dTTP; for full-length 56-mer product: 65° C., 30 minutes
T1 sequence (P52026 1-876): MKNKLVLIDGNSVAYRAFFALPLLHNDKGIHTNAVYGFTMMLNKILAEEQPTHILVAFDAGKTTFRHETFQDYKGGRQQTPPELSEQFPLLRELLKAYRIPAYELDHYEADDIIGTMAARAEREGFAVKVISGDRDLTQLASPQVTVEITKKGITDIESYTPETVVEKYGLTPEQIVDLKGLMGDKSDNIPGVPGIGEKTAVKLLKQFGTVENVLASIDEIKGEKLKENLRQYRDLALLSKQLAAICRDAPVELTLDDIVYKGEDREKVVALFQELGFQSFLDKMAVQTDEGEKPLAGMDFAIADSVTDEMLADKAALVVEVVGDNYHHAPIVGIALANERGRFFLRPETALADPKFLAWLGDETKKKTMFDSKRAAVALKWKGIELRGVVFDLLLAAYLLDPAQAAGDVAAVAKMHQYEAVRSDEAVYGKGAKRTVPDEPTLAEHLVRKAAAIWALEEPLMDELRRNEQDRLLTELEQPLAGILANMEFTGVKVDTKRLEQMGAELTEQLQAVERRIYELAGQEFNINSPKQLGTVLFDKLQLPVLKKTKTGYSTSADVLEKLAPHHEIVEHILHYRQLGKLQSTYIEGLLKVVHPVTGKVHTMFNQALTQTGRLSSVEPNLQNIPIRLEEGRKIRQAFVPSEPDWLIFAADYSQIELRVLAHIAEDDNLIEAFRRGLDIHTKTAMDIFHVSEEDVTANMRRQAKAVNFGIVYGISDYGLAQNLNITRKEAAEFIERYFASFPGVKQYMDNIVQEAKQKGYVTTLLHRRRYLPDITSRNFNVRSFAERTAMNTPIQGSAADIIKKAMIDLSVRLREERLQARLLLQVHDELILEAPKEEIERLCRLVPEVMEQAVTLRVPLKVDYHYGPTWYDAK
Procedure: Unstructured single-stranded UNA was generated by incorporating 2-aminoadenosine and 2-thiothymidine nucleotides using a 14-mer primer and 56-mer template (5′-phosphorylated) and Bst DNA polymerase followed by digestion of the DNA template with lambda exonuclease (FIG. 6). Ten microliter extension reactions were performed in 0.65 ml pre-siliconized microfuge tubes containing the following components: 20 mM Tris-Cl (pH 8.8 @ 25° C.), 10 mM KCl, 10 mM (NH4)2SO4, 2 mM MgSO4, 0.1% Triton-X100, 1.0 microM primer/template, 500 microM dGTP, 500 microM dATP (or 2-amino-2′-deoxyadenosine-5′-triphosphate), 500 microM dTTP (or 2-thiothymidine-5′-triphosphate), 200 microM ^32P--CTP and 0.8 units/microL Bst DNA polymerase. The reactions were incubated at 65° C. for 30 minutes, quenched with 5 mM EDTA, ethanol precipitated, dried and resuspended in 10 microL of 10 mM Tris-Cl pH 8.0. The 56-mer template was digested by incubating the resuspended samples with 10 units of lambda exonuclease (Strandase Kit™, (Novagen; Madison, Wis.)) for 30 minutes at 37° C. The reactions were quenched with 5 mM EDTA, ethanol precipitated, dried and resuspended in 10 microL of 10 mM Tris-Cl pH 8.0. The samples were then electrophoresed on 10% denaturing (7M urea) polyacrylamide gels and visualized using phosphorimaging methods.

[1] = test system: Bst DNA polymerase, Taq DNA polymerase, MMLV-RT; assay: Polymerase extension of 32P-labeled 12-mer primer on synthetic 30-mer template to full-length product; settings: all three polymerases
Procedure: The ability of the Bacillus sterothermophilus (Bst) DNA polymerase (New England Biolabs), the Thermus aquaticus (Taq) DNA polymerase (Amersham) and the Moloney Murine Leukemia Virus reverse transcriptase (MMLV-RT) (Amersham) to incorporate the 2-amino-2′-deoxyadenosine-5′-triphosphate and 2-thiothymidine-5′-triphosphate into polynucleotides was tested using a synthetic 30-mer template and ^32P-labeled 12-mer primer (S.A. 130 Ci/mmol). (FIG. 2A). Extension reactions for each polymerase were performed in 0.65 ml pre-siliconized microfuge tubes containing the following components: (Bst) 20 mM Tris-Cl (pH 8.8 @ 25° C.), 10 mM KCl, 10 mM (NH4)2SO4, 2 mM MgSO4, 0.1% Triton-X100, 0.5 microM primer/template, 250 microM each dNTP and 0.15 units/microL Bst DNA polymerase; (Taq) 26 mM Tris-Cl (pH 9.5 @25° C.), 6.5 mM MgCl2, 0.5 microM primer/template, 250 microM each dNTP and 0.15 units/microL Taq DNA polymerase; (MMLV-RT) 50 mM Tris-Cl (pH 8.3 @ 25° C.) 75 mM KCl, 3 mM MgCl2, […], 0.5 microM primer/template, 250 microM each dNTP and 0.5 units/microL MMLV-RT. The reactions were incubated for 15 minutes at 65° C. for the Bst and Taq reactions and 42° C. for the MMLV-RT reaction. The reaction mixtures were separated by electrophoresis on 10% denaturing (7M urea) polyacrylamide gels and visualized by phosphorimaging methods.

[2] = molecular target: T2, SuperScript II MMLV reverse transcriptase (Moloney murine leukemia virus, UniProt P03355, D1183G/D1242N/E1221Q); assay: Synthesis of fluorescently labeled cUNA from pBp-1 T7-RNA template with dCTP-Cy5; settings: substituted for dATP and TTP; one hour
T2 construct: 200 units of SuperScript II MMLV reverse transcriptase (InVitrogen); purchased InVitrogen
Procedure: The ability to generate fluorescently labeled cUNAs was tested using the pBp-1 T7-RNA template and dCTP-Cy5 fluorescently labeled nucleotide analogue (Perkin-Elmer/NEN). The reverse transcriptase reactions (10.0 uL) were performed in 0.65 mL pre-siliconized microfuge tubes containing the following components: 50 mM Tris-Cl (pH 8.3), 75 mM KCl, 3.0 mM MgCl2, 4.5 mM DTT, 500 uM dGTP (or dITP), 500 uM dATP (or 2-amino-2′-deoxyadenosine-5′-triphosphate), 500 uM TTP (or 2-thiothymidine-5′-triphosphate), the indicated amounts of dCTP and dCTP-Cy5, 40 nM pBp-1 RNA template, 1.0 uM T16N2 primer, 1.0 unit of RNase Out (In Vitrogen), and 100 units of SuperScript II MMLV reverse transcriptase (In Vitrogen). The buffer components, RNA template, and primer were annealed by heating to 75° C. for 4 minutes and quickly cooled to room temperature. The dNTPs and RNase inhibitor were then added and the reactions were initiated by the addition of the reverse transcriptase and incubated at 42° C. At one and three hours, 5.0 uL aliquots were removed, mixed with 0.07 ug of RNase A, and incubated at room temperature for 30 minutes. The ribonucleased reaction mixtures were quenched with EDTA and 8 M urea and separated by electrophoresis on 5% polyacrylamide gels (19:1) containing 1×TBE and 9M urea. The fluorescently-labeled products were visualized using a phosphorimager.

Structure (SMILES): Nc1nc(N)c2ncn([C@H]3C[C@H](O)[C@@H](COP(=O)(O)OP(=O)(O)OP(=O)(O)O)O3)c2n1 [2-amino-2′-deoxyadenosine-5′-triphosphate]
- premature termination products (Bst DNA polymerase): little if any
- full-length 56-mer product (Bst DNA polymerase): full-length 56-mer product is generated
- full-length product when both analogues are substituted for A and T in a single reaction mixture [1]: full-length product was generated
- full-length fluorescently-labeled product [2]: full-length fluorescently-labeled product is generated

Structure (SMILES): Cc1cn([C@H]2C[C@H](O)[C@@H](COP(=O)(O)OP(=O)(O)OP(=O)(O)O)O2)c(=S)[nH]c1=O [2-thiothymidine-5′-triphosphate]
- premature termination products (Bst DNA polymerase): little if any
- full-length 56-mer product (Bst DNA polymerase): full-length 56-mer product is generated
- full-length product when both analogues are substituted for A and T in a single reaction mixture [1]: full-length product was generated
- full-length fluorescently-labeled product [2]: full-length fluorescently-labeled product is generated
